The text below walks through data of patent US10919885B2, “Compounds and uses thereof” (Yumanity Therapeutics, Inc., priority 2018, dated 2021).

A value given as a limit tells only on which side of the number the result lay.

One assay has as its target human SCD1 (Homo sapiens (Human), UniProt O00767). Nature of the assay: Yeast growth assay, strain expressing human SCD1 as the sole desaturase (reduced growth as surrogate for SCD inhibition). As to conditions: yeast with OLE1 deleted expressing human SCD1 from a plasmid; growth read as OD600 after 40 h at 30° C.; top drug concentration 33.3 μM. Type of assay: cell-based. The procedure, abridged:
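Human SCD1 or SCD5 expressed from a plasmid in OLE1-deleted yeast as the sole desaturase. Cells washed free of Tween and fatty acids, grown with compound in SD-Ura glucose medium 40 h at 30 °C; growth measured as OD600, reduced growth taken as SCD inhibition.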

In the next assay the target is human SCD5 (Homo sapiens (Human), UniProt Q86SK9). Nature of the assay: Yeast growth assay, strain expressing human SCD5 as the sole desaturase (reduced growth as surrogate for SCD inhibition). As to conditions: yeast with OLE1 deleted expressing human SCD5 from a plasmid; growth read as OD600 after 40 h at 30° C.; top drug concentration 33.3 μM. It is filed as cell-based. As for the experimental part: Strains expressing SCD1 or SCD5 as the sole desaturase, the human SCD1 and SCD5 genes were used to evaluate inhibition of SCD1/SCD5 using reduced growth as a surrogate for SCD inhibition. These yeast strains express human SCD1 or SCD5 from a plasmid harbored in a strain in which the yeast OLE1 gene is deleted.
Chain of human SCD5 (Q86SK9 whole entry): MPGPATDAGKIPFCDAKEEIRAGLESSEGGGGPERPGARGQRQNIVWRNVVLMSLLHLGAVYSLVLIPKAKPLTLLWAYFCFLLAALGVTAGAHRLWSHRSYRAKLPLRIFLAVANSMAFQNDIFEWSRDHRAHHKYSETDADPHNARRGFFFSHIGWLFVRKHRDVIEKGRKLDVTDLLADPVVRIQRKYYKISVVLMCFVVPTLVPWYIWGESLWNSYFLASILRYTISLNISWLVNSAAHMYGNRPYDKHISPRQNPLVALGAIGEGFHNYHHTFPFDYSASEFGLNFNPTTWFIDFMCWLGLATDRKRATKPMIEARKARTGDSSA
All compound profiling experiments were performed using the same basic protocol. Yeast were cultured using standard techniques in complete synthetic media lacking uracil and containing yeast nitrogen base supplemented with 2% (w/v) glucose (SD-Ura) Starter cultures were inoculated in 3 mL SD-Ura media containing 0.01% tween and 0.2 mM palmitoleic and oleic acid. Cultures were incubated overnight in a 30° C. shaker incubator (225 rpm). Saturated morning cultures were centrifuged, washed in SD-Ura media lacking TWEEN-20 and fatty acids, and then diluted 1:20 in fresh SD-Ura media also lacking TWEEN-20 and fatty acids.
Compound administration was performed in two separate steps. First, 15 μL of SD-Ura was dispensed into clear 384-well assay plates using a MULTIDROP™ Combi reagent dispenser. […] The cultures described above were centrifuged and washed with media lacking TWEEN-20 or oleic and palmitoleic acids.
After yeast delivery, assay plates were incubated under humidified conditions at 30° C. for 40 h. Yeast growth was monitored by reading the OD600 of each well using a microplate reader (Perkin Elmer EnVision™).

Chain of human SCD1 (O00767 whole entry): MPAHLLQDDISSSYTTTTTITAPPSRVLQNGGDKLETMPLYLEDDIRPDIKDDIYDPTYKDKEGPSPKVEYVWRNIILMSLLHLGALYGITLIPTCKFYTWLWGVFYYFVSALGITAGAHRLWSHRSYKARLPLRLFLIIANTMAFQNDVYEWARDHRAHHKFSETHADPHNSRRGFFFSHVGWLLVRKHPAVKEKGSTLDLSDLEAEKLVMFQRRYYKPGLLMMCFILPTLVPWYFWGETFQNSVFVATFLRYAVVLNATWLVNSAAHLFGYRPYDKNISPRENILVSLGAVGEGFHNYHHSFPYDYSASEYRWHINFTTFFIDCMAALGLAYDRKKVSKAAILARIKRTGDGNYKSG

In the case of `O=C(Nc1cnn(Cc2ccccc2Cl)c1)c1cc(-c2cccc3cn(C4COC4)nc23)on1` [Compound 92], the IC50 against human SCD1 and at human SCD5 was over 45 µM throughout.

As for `O=C(Nc1cnn(Cc2ccccc2Cl)c1)c1cc(-c2cccc3cnn(C4COC4)c23)on1` [Compound 93], the IC50 against human SCD1 and on human SCD5 was over 45 µM throughout.

Turning to `O=C(Nc1cnn(Cc2ccccc2Cl)c1)c1cc(-c2cccc3c2cnn3C2COC2)on1` [Compound 94], the half-maximal inhibitory concentration (IC50) against human SCD1 and on human SCD5 was over 45 µM throughout.

For `O=C(Nc1cnn(Cc2ccccc2)c1)c1cc(-c2cccc3cn(C4COC4)nc23)on1` [Compound 95], the IC50 on human SCD1 and against human SCD5 was over 45 µM throughout.

For `O=C(Nc1cnn(Cc2ccccc2)c1)c1cc(-c2cccc3cnn(C4COC4)c23)on1` [Compound 96], the half-inhibitory concentration (IC50) at human SCD1 and against human SCD5 was over 45 µM each time.

In the case of `O=C(Nc1cnn(Cc2ccccc2)c1)c1cc(-c2cccc3c2cnn3C2COC2)on1` [Compound 97], the 50% inhibitory concentration (IC50) against human SCD1 and at human SCD5 was over 45 µM throughout.

Consider `N#Cc1cc(F)cc(Cn2cc(NC(=O)c3cc(-c4ccccc4)on3)cn2)c1` [Compound 98], for which the 50% inhibitory concentration (IC50) on human SCD1 and against human SCD5 was over 45 µM throughout.

On to `N#Cc1ccc(-c2cc(C(=O)Nc3cnn(Cc4cc(F)ccc4C(F)(F)F)c3)no2)nc1` [Compound 99], for which the IC50 at human SCD1 and against human SCD5 was over 45 µM in each case.

Take `O=C(Nc1cnn(Cc2cccc(F)c2)c1)c1cc(C2(O)CCC2)on1` [Compound 100]: the IC50 (commonly the concentration that gives 50% inhibition) against human SCD1 amounted to 3.1 µM; against human SCD5, 20 µM.

For the compound `N#Cc1ccccc1-c1cc(C(=O)Nc2cnn(Cc3cccc(F)c3)c2)no1` [Compound 103], the half-inhibitory concentration (IC50) on human SCD1 and against human SCD5 was over 45 µM each time.

Consider `CCc1cc(C(=O)Nc2cnn(Cc3cccc(F)c3)c2)no1` [Compound 104, 5-ethyl-N-(1-(3-fluorobenzyl)-1H-pyrazol-4-yl)isoxazole-3-carboxamide], for which the IC50 was 0.066 µM against human SCD1 and 1 µM at human SCD5.

As for `C=Cc1cc(C(=O)Nc2cnn(Cc3cccc(F)c3)c2)no1` [Compound 106, N-(1-(3-fluorobenzyl)-1H-pyrazol-4-yl)-5-vinylisoxazole-3-carboxamide], the figures for the half-maximal inhibitory concentration (IC50) against human SCD1 and on human SCD5 were 0.048 µM and 1.9 µM, respectively.

As for `O=C(Nc1cnn(Cc2cc(F)ccc2C(F)(F)F)c1)c1cc(-c2ncccc2F)on1` [Compound 107], the concentration for half-maximal inhibition (IC50) against human SCD1 and against human SCD5 was over 45 µM each time.

For the compound `O=C(Nc1cnn(Cc2cccc(F)c2)c1)c1cc(-c2ncccc2F)on1` [Compound 108, N-(1-(3-fluorobenzyl)-1H-pyrazol-4-yl)-5-(3-fluoropyridin-2-yl)isoxazole-3-carboxamide], the IC50 at human SCD1 worked out at 1.2 µM; on human SCD5, 1.8 µM.

With `COc1ccc(Cn2cc(NC(=O)c3cc(-c4ccccc4)on3)cn2)cc1` [Compound 109], the IC50 at human SCD1 and at human SCD5 was over 45 µM each time.

In the case of `O=C(Nc1cnn(Cc2ccc(F)cc2)c1)c1cc(-c2ccccc2)on1` [Compound 112], the IC50 at human SCD1 and against human SCD5 was over 45 µM each time.

As to `CN(C)CC(c1ccccc1)n1cc(NC(=O)c2cc(-c3ccccc3)on2)cn1` (stereo not drawn) [Compound 113], the IC50 on human SCD1 and on human SCD5 was over 45 µM throughout.

Consider `CC1(c2cc(C(=O)Nc3cnn(Cc4cccc(F)c4)c3)no2)COC1` [Compound 116], for which the IC50 on human SCD1 and against human SCD5 was over 45 µM in each case.

As to `CC(C)(C)c1cc(C(=O)Nc2cnn(Cc3ccccc3)c2)no1` [Compound 118, N-(1-benzyl-1H-pyrazol-4-yl)-5-(tert-butyl)isoxazole-3-carboxamide], the IC50 turned out to be 0.15 µM on human SCD1 and 2.7 µM against human SCD5.

Turning to `O=C(Nc1cnn(Cc2ccccc2)c1)c1cc(C2CC2)on1` [Compound 119, N-(1-benzyl-1H-pyrazol-4-yl)-5-cyclopropylisoxazole-3-carboxamide], the IC50 against human SCD1 turned out to be 0.11 µM; against human SCD5 it was 2 µM.

Take `O=C(Nc1cnn(Cc2ccccc2)c1)c1cc(-c2ccccc2)no1` [Compound 123]: the concentration for half-maximal inhibition (IC50) on human SCD1 and against human SCD5 was over 45 µM each time.

Consider `O=C(Nc1cnn(Cc2ccccc2)c1)c1cc(-c2ccncc2)on1` [Compound 124, N-(1-benzyl-1H-pyrazol-4-yl)-5-(pyridin-4-yl)isoxazole-3-carboxamide], for which the half-inhibitory concentration (IC50) at human SCD1 turned out to be 5.7 µM; against human SCD5, 7 µM.

Consider `O=C(Nc1cnn(Cc2ccccc2)c1)c1cc(-c2ccns2)on1` [Compound 126], for which the IC50 was 6.97 µM against human SCD1 and over 45 µM against human SCD5.

In the case of `N#Cc1cccc(-c2cc(C(=O)Nc3cnn(Cc4ccccc4)c3)no2)c1` [Compound 127], the half-inhibitory concentration (IC50) against human SCD1 was 4.62 µM; at human SCD5, over 45 µM.

Consider `N#Cc1ccc(-c2cc(C(=O)Nc3cnn(Cc4ccccc4)c3)no2)cc1` [Compound 128], for which the IC50 against human SCD1 was 0.98 µM; at human SCD5, over 45 µM.

Regarding `O=C(Nc1cnn(Cc2ccccc2)c1)c1cc(-c2ccccn2)no1` [Compound 129], the IC50 on human SCD1 and at human SCD5 was over 45 µM throughout.

Regarding `O=C(Nc1cnn(Cc2ccccc2)c1)c1cc(-c2ccccc2F)no1` [Compound 130], the 50% inhibitory concentration (IC50) at human SCD1 and on human SCD5 was over 45 µM throughout.

Take `O=C(Nc1cnn(Cc2ccccc2)c1)c1cc(-c2cncs2)no1` [Compound 131]: the IC50 at human SCD1 and against human SCD5 was over 45 µM in each case.

For `N#Cc1cccc(Cn2cc(NC(=O)c3cc(-c4ccccc4)on3)cn2)c1` [Compound 132], the IC50 at human SCD1 and against human SCD5 was over 45 µM in each case.

Regarding `Cc1ncc(-c2cc(C(=O)Nc3cnn(Cc4ccccc4)c3)no2)s1` [Compound 133], the IC50 against human SCD1 and against human SCD5 was over 45 µM each time.

Consider `O=C(Nc1cnn(Cc2ccccc2)c1)c1cc(-c2ccncc2Cl)on1` [Compound 134, N-(1-benzyl-1H-pyrazol-4-yl)-5-(3-chloropyridin-4-yl)isoxazole-3-carboxamide], for which the 50% inhibitory concentration (IC50) against human SCD1 came to 5.32 µM; on human SCD5 it was 4.96 µM.

With `N#Cc1ccccc1-c1cc(C(=O)Nc2cnn(Cc3ccccc3)c2)no1` [Compound 135], the IC50 against human SCD1 and against human SCD5 was over 45 µM each time.

`COc1ccccc1-c1cc(C(=O)Nc2cnn(Cc3ccccc3)c2)no1` [Compound 136]: the IC50 against human SCD1 and against human SCD5 was over 45 µM in each case.

With `O=C(Nc1cnn(Cc2ccccc2)c1)c1cc(-c2ccc(F)cn2)on1` [Compound 137], the half-inhibitory concentration (IC50) against human SCD1 and against human SCD5 was over 45 µM each time.

Turning to `O=C(c1cnn(Cc2ccncc2)c1)c1cc(-c2ccccc2)on1` [Compound 138], the IC50 at human SCD1 and against human SCD5 was over 45 µM in each case.

On to `O=C(Nc1cnn(Cc2cccc(F)c2)c1)c1cc(C2COC2)on1` [Compound 139, N-(1-(3-fluorobenzyl)-1H-pyrazol-4-yl)-5-(oxetan-3-yl)isoxazole-3-carboxamide], for which the IC50 on human SCD1 is 0.737 µM; at human SCD5, 6.97 µM.

Take `O=C(Nc1cnn(Cc2ccccc2)c1)c1cc(-c2ccccc2Cl)on1` [Compound 141]: the half-maximal inhibitory concentration (IC50) against human SCD1 and on human SCD5 was over 45 µM in each case.

Consider `Cc1cnc(-c2cc(C(=O)Nc3cnn(Cc4ccccc4)c3)no2)s1` [Compound 142], for which the IC50 against human SCD1 and against human SCD5 was over 45 µM throughout.

On to `Cc1csc(-c2cc(C(=O)Nc3cnn(Cc4ccccc4)c3)no2)n1` [Compound 143], for which the IC50 against human SCD1 and against human SCD5 was over 45 µM in each case.
